Reference: patent US5096898A, “Bile acid unsaturated derivatives and pharmaceutical compositions containing them” (Giuliani S.p.A., priority 1990, dated 1992)
Values after ≈ are worked out from the molar mass of the structure shown. “Also recorded” adds a separate entry of the source. Where two headings read alike, the source gives them in different places.

Tests used:
[1] = Effect on bile flow and bile lipid secretion; format: in vivo, rat; conditions: for SMAB (maximum secretion) / SMPL (maximum bile lipid secretion) / SMVo = maximum bile flow / SMXOL (maximum bile lipid secretion): intravenous, 6 μmoles/min/kg during 1 hour (stated for TOL-UDCA)
Method: (§1) Trans 3α,7β-dihydroxy-5β-24-cholen-27-oic acid (TOL-UDCA) was studied compared with ursodeoxycholic acid and the glycine and taurine conjugated thereof also in the following pharmacological tests:
effects on the secretion of bile, bile acids, cholesterol and phospholipids.
(§2) TOL-UDCA was administered to rat by intravenous and intraduodenal routes at a dose of 6 μmoles/min/kg during 1 hour.
SMVo = maximum bile flow
SM = maximum bile lipid secretion

[2] = Physico-chemical characteristics (Table 1); format: physicochemical; design: Critical micellar concentration (CMC): unit not given here; conditions: for chromatographic logP: c18 hplc
[3] = Hepatic absorption, metabolism and biliary secretion, intravenous; format: in vivo; conditions: rat
Method: as §1
hepatic and intestinal metabolism (in vivo and in vitro)
hepatic and intestinal absorption
as §2

[4] = read-out: Retention times with C18-HPLC (K') (converted)

Row | SMILES | SMAB (maximum secretion) [1] | SMPL (maximum bile lipid secretion) [1] | SMVo = maximum bile flow [1] [mL/h/kg] | SMXOL (maximum bile lipid secretion) [1] | Critical micellar concentration (CMC) [2] | chromatographic logP [2, 4] | solubility ([2]; read-out: Solubility) [µM] | pKa ([2]; read-out: pKa) | pKa [2] | solubility [2] [µM] | bile flow / choleretic effect (in words) ([1]; compared with UDCA natural analogs and conjugated forms) | chromatographic logP [2] | kinetic of recovery in the bile ([3]; intravenous, 6 μmoles/min/kg during 1 hour) | accumulation in the hepatic cells ([3]; in vivo) | disappearance from the bile ([3]; in vivo) | presence in bile 2 hours after end of infusion ([3]; in vivo)
1 | C[C@H](CCC(=O)O)[C@H]1CC[C@H]2[C@@H]3[C@@H](O)C[C@@H]4C[C@H](O)CC[C@]4(C)[C@H]3CC[C@]12C [UDCA, ursodeoxycholic acid] | 3,02 μmol/min/kg | 0,22 μmol/min/kg | 3.6 | 0,022 μmol/min/kg | 19 | 0.563 | 9 (≈ 3.53 µg/mL) | 5.06 |  |  |  |  |  |  |  | 
2 | C[C@H](CCC(=O)NCCS(=O)(=O)O)[C@H]1CC[C@H]2[C@@H]3[C@@H](O)C[C@@H]4C[C@H](O)CC[C@]4(C)[C@H]3CC[C@]12C [T-UDCA] | 2,40 μmol/min/kg | 0,18 μmol/min/kg | 2.1 | 0,014 μmol/min/kg | 8 | -0.00877 |  | 2 |  |  |  |  |  |  |  | 
3 | C[C@H](CCC(=O)NCC(=O)O)[C@H]1CC[C@H]2[C@@H]3[C@@H](O)C[C@@H]4C[C@H](O)CC[C@]4(C)[C@H]3CC[C@]12C [G-UDCA] | 2,10 μmol/min/kg | 0,39 μmol/min/kg | 2.4 | 0,028 μmol/min/kg | 12 | 0.0253 |  |  | 3.9 | 3 (≈ 1.35 µg/mL) |  |  |  |  |  | 
4 | C[C@H](CC/C=C/CC(=O)O)[C@H]1CC[C@H]2[C@@H]3[C@@H](O)C[C@@H]4C[C@H](O)CC[C@]4(C)[C@H]3CC[C@]12C [TOL-UDCA, Trans-3α,7β-dihydroxy-5β-24-cholen-27-oic acid] | 1,02 μmol/min/kg | 0,12 μmol/min/kg | 5.4 | 0,020 μmol/min/kg | 5 |  |  |  | 5.02 | 10 (≈ 4.33 µg/mL) | increases bile flow and this effect is stronger than the one of UDCA natural analogs and of the conjugated forms thereof; also recorded: strong choleretic effect after intravenous or intraduodenal administrations, which effect is higher than that of UDCA | 0.96 | recovered in the bile with a slow kinetic | accumulates in the hepatic cells | disappears from the bile with a slow kinetic | a noticeable amount of this bile acid is still present 2 hours after
